{"source": "patent US11136362B2", "about": "“Peptide modulators of specific calcineurin protein-protein interactions” (The Board of Trustees of the Leland Stanford Junior …, priority 2016, dated 2021)", "origin": "cited, not measured here", "target": "T1, TRPV1 (Homo sapiens, UniProt Q8NER1)", "T1 construct": "host or cells: human trial subjects (endogenous)", "T1 sequence (Q8NER1 whole entry)": "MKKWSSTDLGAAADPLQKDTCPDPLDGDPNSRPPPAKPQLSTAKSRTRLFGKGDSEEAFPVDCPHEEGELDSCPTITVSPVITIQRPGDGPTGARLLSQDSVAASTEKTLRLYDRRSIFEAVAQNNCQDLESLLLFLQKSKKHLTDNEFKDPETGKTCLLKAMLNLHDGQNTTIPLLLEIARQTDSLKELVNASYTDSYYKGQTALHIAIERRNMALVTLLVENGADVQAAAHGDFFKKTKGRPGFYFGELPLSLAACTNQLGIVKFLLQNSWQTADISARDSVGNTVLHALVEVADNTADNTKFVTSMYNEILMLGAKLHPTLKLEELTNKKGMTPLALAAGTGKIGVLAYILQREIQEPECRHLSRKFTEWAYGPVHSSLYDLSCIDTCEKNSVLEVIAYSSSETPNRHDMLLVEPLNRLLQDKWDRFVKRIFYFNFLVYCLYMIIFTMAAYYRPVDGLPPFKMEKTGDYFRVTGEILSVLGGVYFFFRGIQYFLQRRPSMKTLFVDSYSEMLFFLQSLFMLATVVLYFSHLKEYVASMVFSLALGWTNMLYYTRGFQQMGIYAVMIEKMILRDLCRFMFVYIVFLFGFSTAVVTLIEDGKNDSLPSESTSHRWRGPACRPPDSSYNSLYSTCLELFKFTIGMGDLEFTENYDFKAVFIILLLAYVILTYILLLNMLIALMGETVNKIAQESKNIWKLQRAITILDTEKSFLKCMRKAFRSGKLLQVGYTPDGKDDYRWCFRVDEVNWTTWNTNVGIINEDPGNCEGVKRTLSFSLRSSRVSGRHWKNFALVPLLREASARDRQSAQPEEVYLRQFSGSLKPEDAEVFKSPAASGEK", "conditions": "in vivo; cited from earlier work", "data": [{"compound": "CC(=O)Nc1nc2c(Oc3cc(-c4ccc(C(F)(F)F)cc4)ncn3)cccc2s1", "note": "[AMG517]", "values": [{"measurement": "adverse effect in human clinical trials", "result": "caused hyperthermia"}]}]}
